Source: patent publication US20260327204A1, “DEGRADERS OF CYCLIN-DEPENDENT KINASE 12/13, COMPOSITIONS, AND USES THEREOF” (ZHEJIANG UNIVERSITY, priority 2023, published 2026)
Where two headings read alike, the source gives them in different places.

Experiments:
[1] = biological target: CDK12 (Homo sapiens, UniProt Q9NYV4); test: Western blot degradation of CDK12 (Example 3); type: cell-based; set-up: degradation of CDK12/13 protein in leukemia cells KASUMI-1, MV4-11, and Jurkat; endogenous in cells
Chain of CDK12 (Q9NYV4 whole entry): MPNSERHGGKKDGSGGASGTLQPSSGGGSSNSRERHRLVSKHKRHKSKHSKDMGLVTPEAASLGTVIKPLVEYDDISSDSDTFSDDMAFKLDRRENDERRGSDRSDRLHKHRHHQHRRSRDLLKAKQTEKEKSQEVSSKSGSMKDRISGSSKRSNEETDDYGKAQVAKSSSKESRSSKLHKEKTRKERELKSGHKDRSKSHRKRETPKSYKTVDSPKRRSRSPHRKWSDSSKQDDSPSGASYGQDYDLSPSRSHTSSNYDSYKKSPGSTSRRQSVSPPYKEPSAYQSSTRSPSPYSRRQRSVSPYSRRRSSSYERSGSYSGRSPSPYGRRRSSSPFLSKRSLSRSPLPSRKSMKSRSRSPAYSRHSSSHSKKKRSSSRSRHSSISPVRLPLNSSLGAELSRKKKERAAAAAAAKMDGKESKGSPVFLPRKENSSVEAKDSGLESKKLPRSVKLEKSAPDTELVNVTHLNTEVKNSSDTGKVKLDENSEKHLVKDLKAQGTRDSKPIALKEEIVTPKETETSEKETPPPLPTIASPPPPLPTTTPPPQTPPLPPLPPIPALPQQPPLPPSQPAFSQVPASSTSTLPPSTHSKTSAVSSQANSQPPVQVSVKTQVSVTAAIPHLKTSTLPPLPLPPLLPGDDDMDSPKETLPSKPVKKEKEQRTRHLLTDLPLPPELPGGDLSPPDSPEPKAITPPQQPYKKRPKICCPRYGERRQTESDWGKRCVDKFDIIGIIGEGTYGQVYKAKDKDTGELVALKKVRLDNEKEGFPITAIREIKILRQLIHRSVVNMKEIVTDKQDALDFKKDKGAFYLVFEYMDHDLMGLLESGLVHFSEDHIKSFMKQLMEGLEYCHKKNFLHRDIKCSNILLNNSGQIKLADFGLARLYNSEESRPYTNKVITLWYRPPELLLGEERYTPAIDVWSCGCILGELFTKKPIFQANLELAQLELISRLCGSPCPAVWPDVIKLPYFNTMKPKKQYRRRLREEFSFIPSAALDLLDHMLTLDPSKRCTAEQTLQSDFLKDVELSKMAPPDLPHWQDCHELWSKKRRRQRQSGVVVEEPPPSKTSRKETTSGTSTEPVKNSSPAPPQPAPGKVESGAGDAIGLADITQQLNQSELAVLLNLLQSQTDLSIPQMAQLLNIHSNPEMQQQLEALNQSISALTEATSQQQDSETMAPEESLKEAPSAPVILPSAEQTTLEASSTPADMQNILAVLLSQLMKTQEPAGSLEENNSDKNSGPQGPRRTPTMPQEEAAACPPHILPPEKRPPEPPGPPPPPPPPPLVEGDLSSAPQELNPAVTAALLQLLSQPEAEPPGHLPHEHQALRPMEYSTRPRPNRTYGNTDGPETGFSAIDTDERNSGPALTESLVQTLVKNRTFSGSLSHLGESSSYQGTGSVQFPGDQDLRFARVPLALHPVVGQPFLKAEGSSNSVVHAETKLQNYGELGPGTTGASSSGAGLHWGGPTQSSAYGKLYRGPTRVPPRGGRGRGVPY
Chain of CDK12 (O75909 whole entry partner): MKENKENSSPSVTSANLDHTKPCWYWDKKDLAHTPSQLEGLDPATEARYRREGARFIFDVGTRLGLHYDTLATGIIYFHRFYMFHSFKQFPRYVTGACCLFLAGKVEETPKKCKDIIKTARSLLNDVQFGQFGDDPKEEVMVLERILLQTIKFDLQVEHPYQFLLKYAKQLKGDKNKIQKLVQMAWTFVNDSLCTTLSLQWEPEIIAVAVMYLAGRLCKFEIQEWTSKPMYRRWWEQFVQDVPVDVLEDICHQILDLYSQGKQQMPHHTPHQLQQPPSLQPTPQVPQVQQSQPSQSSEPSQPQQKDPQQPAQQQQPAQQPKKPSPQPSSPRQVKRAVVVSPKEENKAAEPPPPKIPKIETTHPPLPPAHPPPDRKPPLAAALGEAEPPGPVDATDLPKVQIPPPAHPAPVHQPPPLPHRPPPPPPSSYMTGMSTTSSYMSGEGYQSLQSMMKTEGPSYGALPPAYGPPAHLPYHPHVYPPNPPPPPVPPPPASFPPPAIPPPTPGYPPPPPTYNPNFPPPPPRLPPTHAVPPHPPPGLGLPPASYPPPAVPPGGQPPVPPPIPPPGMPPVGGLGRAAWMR

[2] = biological target: CDK13 (Homo sapiens, UniProt Q14004); test: Western blot degradation of CDK13 (Example 3); type: cell-based; set-up: degradation of CDK12/13 protein in leukemia cells KASUMI-1, MV4-11, and Jurkat; endogenous in cells
Chain of CDK13 (Q14004 whole entry): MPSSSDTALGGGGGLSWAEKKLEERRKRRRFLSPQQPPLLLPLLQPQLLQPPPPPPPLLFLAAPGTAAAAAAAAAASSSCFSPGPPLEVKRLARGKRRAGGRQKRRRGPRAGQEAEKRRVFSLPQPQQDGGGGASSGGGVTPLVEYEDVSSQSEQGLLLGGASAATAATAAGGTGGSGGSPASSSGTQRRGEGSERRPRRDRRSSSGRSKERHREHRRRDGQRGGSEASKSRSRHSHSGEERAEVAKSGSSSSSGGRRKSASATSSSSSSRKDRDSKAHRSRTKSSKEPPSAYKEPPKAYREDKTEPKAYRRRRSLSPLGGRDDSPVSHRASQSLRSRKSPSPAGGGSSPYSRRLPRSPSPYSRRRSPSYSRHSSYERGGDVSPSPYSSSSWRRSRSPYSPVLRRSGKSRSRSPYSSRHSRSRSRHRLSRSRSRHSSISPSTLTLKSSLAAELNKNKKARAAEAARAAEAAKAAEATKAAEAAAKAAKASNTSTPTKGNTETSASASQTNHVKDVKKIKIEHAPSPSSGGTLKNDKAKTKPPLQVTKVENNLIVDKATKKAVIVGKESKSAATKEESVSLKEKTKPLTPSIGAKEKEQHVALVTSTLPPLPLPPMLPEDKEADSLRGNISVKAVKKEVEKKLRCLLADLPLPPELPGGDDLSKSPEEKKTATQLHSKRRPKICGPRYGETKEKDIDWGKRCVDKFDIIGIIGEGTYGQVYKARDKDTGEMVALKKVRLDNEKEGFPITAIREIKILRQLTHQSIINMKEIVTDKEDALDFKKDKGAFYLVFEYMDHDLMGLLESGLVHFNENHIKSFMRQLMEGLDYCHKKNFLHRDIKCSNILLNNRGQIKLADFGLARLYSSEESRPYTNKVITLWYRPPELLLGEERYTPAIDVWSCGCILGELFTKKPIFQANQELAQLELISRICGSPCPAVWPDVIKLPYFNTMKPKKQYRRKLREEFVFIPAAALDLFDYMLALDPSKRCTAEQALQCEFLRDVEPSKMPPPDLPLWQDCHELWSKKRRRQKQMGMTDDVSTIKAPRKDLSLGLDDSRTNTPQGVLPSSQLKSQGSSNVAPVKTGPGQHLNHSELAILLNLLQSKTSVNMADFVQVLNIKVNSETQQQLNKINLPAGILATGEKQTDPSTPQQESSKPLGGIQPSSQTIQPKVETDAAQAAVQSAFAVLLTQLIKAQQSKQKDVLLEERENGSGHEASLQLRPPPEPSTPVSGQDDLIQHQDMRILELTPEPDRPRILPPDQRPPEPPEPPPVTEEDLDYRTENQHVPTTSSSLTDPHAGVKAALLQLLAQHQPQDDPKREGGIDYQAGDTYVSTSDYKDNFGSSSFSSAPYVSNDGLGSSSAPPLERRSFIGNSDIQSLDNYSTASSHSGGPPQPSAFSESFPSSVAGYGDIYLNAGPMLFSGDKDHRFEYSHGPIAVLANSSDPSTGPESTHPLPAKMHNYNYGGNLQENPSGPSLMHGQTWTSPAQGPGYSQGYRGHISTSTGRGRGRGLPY
Chain of CDK13 (O75909 whole entry partner): as the sequence (O75909 whole entry partner) above

[3] = DC50 classes; cell line not given; read-out: CDK12 degradation Activity
[4] = DC50 classes; cell line not given; read-out: CDK13 degradation Activity
[5] = DC50 classes; cell line not given

CC(=O)N(c1ccc(-c2cnc(OC3CCN(CC(=O)N[C@H](C(=O)N4C[C@H](O)C[C@H]4C(=O)N[C@@H](C)c4ccc(-c5scnc5C)cc4)C(C)(C)C)CC3)nc2)cc1)[C@H]1CC[C@H](Nc2ncc3ccccc3n2)CC1 [Formula 136, (2S,4R)-1-((S)-3,3-dimethyl-2-(2-(4-((5-(4-(N-((1R,4R)-4-(quinazolin-2-ylamino)cyclohexyl)acetamido)phenyl)pyrimidin-2-yl)oxy)piperidin-1-yl)acetamido)butanoyl)-4-hydroxy-N—((S)-1-(4-(4-methylthiazol-5-yl)phenyl)ethyl)pyrrolidine-2-carboxamide]
DC50 [1, 3]: 500 to 1000 nM
DC50 [2, 4]: 500 to 1000 nM

CC(=O)N(c1ccc(-c2ccc(N3CCC(C(=O)N[C@H](C(=O)N4C[C@H](O)C[C@H]4C(=O)N[C@@H](C)c4ccc(-c5scnc5C)cc4)C(C)(C)C)CC3)nc2)cc1)[C@H]1CC[C@H](Nc2ncc3ccccc3n2)CC1 [Formula 137, N—((S)-1-((2S,4R)-4-hydroxy-2-(((S)-1-(4-(4-methylthiazol-5-yl)phenyl)ethyl)carbamoyl)pyrrolidin-1-yl)-3,3-dimethyl-1-oxobutan-2-yl)-1-(5-(4-(N-((1R,4R)-4-(quinazolin-2-ylamino)cyclohexyl)acetamido)phenyl)pyridin-2-yl)piperidine-4-carboxamide]
DC50 [1, 3]: 3000 to 10000 nM
DC50 [2, 4]: 3000 to 10000 nM

CC(=O)N(c1ccc(-c2cnc(N3CCC(C(=O)N[C@H](C(=O)N4C[C@H](O)C[C@H]4C(=O)N[C@@H](C)c4ccc(-c5scnc5C)cc4)C(C)(C)C)CC3)nc2)cc1)[C@H]1CC[C@H](Nc2ncc3ccccc3n2)CC1 [Formula 138, N—((S)-1-((2S,4R)-4-hydroxy-2-(((S)-1-(4-(4-methylthiazol-5-yl)phenyl)ethyl)carbamoyl)pyrrolidin-1-yl)-3,3-dimethyl-1-oxobutan-2-yl)-1-(5-(4-(N-((1R,4R)-4-(quinazolin-2-ylamino)cyclohexyl)acetamido)phenyl)pyrimidin-2-yl)piperidine-4-carboxamide]
DC50 [1, 3]: 1000 to 3000 nM
CDK13 degradation Activity [2, 5]: −

CC(=O)N(c1ccc(-c2cnn(C3CCN(CC(=O)N[C@H](C(=O)N4C[C@H](O)C[C@H]4C(=O)N[C@@H](C)c4ccc(-c5scnc5C)cc4)C(C)(C)C)CC3)c2)cc1)[C@H]1CC[C@H](Nc2ncc3ccccc3n2)CC1 [Formula 139]
DC50 [1, 3]: 1000 to 3000 nM
DC50 [2, 4]: 1000 to 3000 nM

CC(=O)N(c1ccc(-c2ccc(N3C[C@@H]4C[C@H]3CN4CC(=O)N[C@H](C(=O)N3C[C@H](O)C[C@H]3C(=O)N[C@@H](C)c3ccc(-c4scnc4C)cc3)C(C)(C)C)nc2)cc1)[C@H]1CC[C@H](Nc2ncc3ccccc3n2)CC1 [Formula 141, (2S,4R)-1-((S)-3,3-dimethyl-2-(2-((1S,4S)-5-(5-(4-(N-((1R,4S)-4-(quinazolin-2-ylamino)cyclohexyl)acetamido)phenyl)pyridin-2-yl)-2,5-diazabicyclo[2.2.1]heptan-2-yl)acetamido)butanoyl)-4-hydroxy-N—((S)-1-(4-(4-methylthiazol-5-yl)phenyl)ethyl)pyrrolidine-2-carboxamide]
DC50 [1, 3]: < 100 nM
DC50 [2, 4]: 100 to 500 nM

CC(=O)N(c1ccc(-c2cnc(N3C[C@@H]4C[C@H]3CN4CC(=O)N[C@H](C(=O)N3C[C@H](O)C[C@H]3C(=O)N[C@@H](C)c3ccc(-c4scnc4C)cc3)C(C)(C)C)nc2)cc1)[C@H]1CC[C@H](Nc2ncc3ccccc3n2)CC1 [Formula 142, (2S,4R)-1-((S)-3,3-dimethyl-2-(2-((1S,4S)-5-(5-(4-(N-((1R,4S)-4-(quinazolin-2-ylamino)cyclohexyl)acetamido)phenyl)pyrimidin-2-yl)-2,5-diazabicyclo[2.2.1]heptan-2-yl)acetamido)butanoyl)-4-hydroxy-N—((S)-1-(4-(4-methylthiazol-5-yl)phenyl)ethyl)pyrrolidine-2-carboxamide]
DC50 [1, 3]: < 100 nM
DC50 [2, 4]: < 100 nM

CC(=O)N(c1ccc(-c2ccc(N3C[C@H]4C[C@@H]3CN4CC(=O)N[C@H](C(=O)N3C[C@H](O)C[C@H]3C(=O)N[C@@H](C)c3ccc(-c4scnc4C)cc3)C(C)(C)C)nc2)cc1)[C@H]1CC[C@H](Nc2ncc3ccccc3n2)CC1 [Formula 143, (2S,4R)-1-((S)-3,3-dimethyl-2-(2-((1R,4R)-5-(5-(4-(N-((1R,4S)-4-(quinazolin-2-ylamino)cyclohexyl)acetamido)phenyl)pyridin-2-yl)-2,5-diazabicyclo[2.2.1]heptan-2-yl)acetamido)butanoyl)-4-hydroxy-N—((S)-1-(4-(4-methylthiazol-5-yl)phenyl)ethyl)pyrrolidine-2-carboxamide]
DC50 [1, 3]: 100 to 500 nM
DC50 [2, 4]: 100 to 500 nM

CC(=O)N(c1ccc(-c2cnc(N3C[C@H]4C[C@@H]3CN4CC(=O)N[C@H](C(=O)N3C[C@H](O)C[C@H]3C(=O)N[C@@H](C)c3ccc(-c4scnc4C)cc3)C(C)(C)C)nc2)cc1)[C@H]1CC[C@H](Nc2ncc3ccccc3n2)CC1 [Formula 144, (2S,4R)-1-((S)-3,3-dimethyl-2-(2-((1R,4R)-5-(5-(4-(N-((1r,4S)-4-(quinazolin-2-ylamino)cyclohexyl)acetamido)phenyl)pyrimidin-2-yl)-2,5-diazabicyclo[2.2.1]heptan-2-yl)acetamido)butanoyl)-4-hydroxy-N—((S)-1-(4-(4-methylthiazol-5-yl)phenyl)ethyl)pyrrolidine-2-carboxamide]
DC50 [1, 3]: < 100 nM
DC50 [2, 4]: 100 to 500 nM

CC(=O)N(c1ccc(-c2ccc(N3CCN(C(=O)N[C@H](C(=O)N4C[C@H](O)CC4C(=O)N[C@@H](C)c4ccc(-c5scnc5C)cc4)C(C)(C)C)CC3)nc2)cc1)[C@H]1CC[C@H](Nc2ncc3ccccc3n2)CC1 (stereo partly drawn) [Formula 145]
CDK12 degradation Activity [1, 5]: −
DC50 [2, 4]: 3000 to 10000 nM

CC(=O)N(c1ccc(-c2cnc(N3CCN(C(=O)N[C@H](C(=O)N4C[C@H](O)C[C@H]4C(=O)N[C@@H](C)c4ccc(-c5scnc5C)cc4)C(C)(C)C)CC3)nc2)cc1)[C@H]1CC[C@H](Nc2ncc3ccccc3n2)CC1 [Formula 146, N—((S)-1-((2S,4R)-4-hydroxy-2-(((S)-1-(4-(4-methylthiazol-5-yl)phenyl)ethyl)carbamoyl)pyrrolidin-1-yl)-3,3-dimethyl-1-oxobutan-2-yl)-4-(5-(4-(N-((1R,4R)-4-(quinazolin-2-ylamino)cyclohexyl)acetamido)phenyl)pyrimidin-2-yl)piperazine-1-carboxamide]
DC50 [1, 3]: 3000 to 10000 nM
DC50 [2, 4]: 3000 to 10000 nM

CC(=O)N(c1ccc(-c2cnc(N3CCN(CC(=O)N[C@H](C(=O)N4C[C@H](O)C[C@H]4C(=O)N[C@@H](C)c4ccc(-c5scnc5C)cc4)C(C)(C)C)CC3)nc2)cc1)[C@H]1CC[C@H](Nc2ncc3ccccc3n2)CC1 [Formula 148, (2S,4R)-1-((S)-3,3-dimethyl-2-(2-(4-(5-(4-(N-((1R,4R)-4-(quinazolin-2-ylamino)cyclohexyl)acetamido)phenyl)pyrimidin-2-yl)piperazin-1-yl)acetamido)butanoyl)-4-hydroxy-N—((S)-1-(4-(4-methylthiazol-5-yl)phenyl)ethyl)pyrrolidine-2-carboxamide]
DC50 [1, 3]: < 100 nM
DC50 [2, 4]: < 100 nM

CC(=O)N(c1ccc(-c2ccc3c(c2)CCN(CC(=O)N[C@H](C(=O)N2C[C@H](O)C[C@H]2C(=O)N[C@@H](C)c2ccc(-c4scnc4C)cc2)C(C)(C)C)C3)cc1)[C@H]1CC[C@H](Nc2ncc3ccccc3n2)CC1 [Formula 149, (2S,4R)-1-((S)-3,3-dimethyl-2-(2-(6-(4-(N-((1R,4R)-4-(quinazolin-2-ylamino)cyclohexyl)acetamido)phenyl)-3,4-dihydroisoquinolin-2(1H)-yl)acetamido)butanoyl)-4-hydroxy-N—((S)-1-(4-(4-methylthiazol-5-yl)phenyl)ethyl)pyrrolidine-2-carboxamide]
DC50 [1, 3]: 500 to 1000 nM
DC50 [2, 4]: 1000 to 3000 nM

CC(=O)N(c1ccc(-c2ccc(N3CCN(Cc4cnn([C@H](C(=O)N5C[C@H](O)C[C@H]5C(=O)N[C@@H](C)c5ccc(-c6scnc6C)cc5)C(C)C)c4)CC3)nc2)cc1)C1CCC(Nc2ncc3ccccc3n2)CC1 (stereo partly drawn) [Formula 151, (2S,4R)-4-hydroxy-1-((S)-3-methyl-2-(4-((4-(5-(4-(N-((1R,4R)-4-(quinazolin-2-ylamino)cyclohexyl)acetamido)phenyl)pyridin-2-yl)piperazin-1-yl)methyl)-1H-pyrazol-1-yl)butanoyl)-N—((S)-1-(4-(4-methylthiazol-5-yl)phenyl)ethyl)pyrrolidine-2-carboxamide]
DC50 ([1]; read-out: CDK12 degradation Activity; DC50 classes; cell line not given): 500 to 1000 nM
DC50 ([2]; read-out: CDK13 degradation Activity; DC50 classes; cell line not given): 100 to 500 nM

CC(=O)N(c1ccc(-c2ccc(N3CCN(c4cnn([C@H](C(=O)N5C[C@H](O)C[C@H]5C(=O)N[C@@H](C)c5ccc(-c6scnc6C)cc5)C(C)C)c4)CC3)nc2)cc1)[C@H]1CC[C@H](Nc2ncc3ccccc3n2)CC1 [Formula 152, (2S,4R)-4-hydroxy-1-((S)-3-methyl-2-(4-(4-(5-(4-(N-((1R,4R)-4-(quinazolin-2-ylamino)cyclohexyl)acetamido)phenyl)pyridin-2-yl)piperazin-1-yl)-1H-pyrazol-1-yl)butanoyl)-N—((S)-1-(4-(4-methylthiazol-5-yl)phenyl)ethyl)pyrrolidine-2-carboxamide]
DC50 [1, 3]: 100 to 500 nM
DC50 [2, 4]: 100 to 500 nM

CC(=O)N(c1ccc(-c2cnc(N3CCN(Cc4cnn([C@H](C(=O)N5C[C@H](O)C[C@H]5C(=O)N[C@@H](C)c5ccc(-c6scnc6C)cc5)C(C)C)c4)CC3)nc2)cc1)[C@H]1CC[C@H](Nc2ncc3ccccc3n2)CC1 [Formula 153, (2S,4R)-4-hydroxy-1-((S)-3-methyl-2-(4-((4-(5-(4-(N-((1R,4R)-4-(quinazolin-2-ylamino)cyclohexyl)acetamido)phenyl)pyrimidin-2-yl)piperazin-1-yl)methyl)-1H-pyrazol-1-yl)butanoyl)-N—((S)-1-(4-(4-methylthiazol-5-yl)phenyl)ethyl)pyrrolidine-2-carboxamide]
DC50 [1, 3]: 100 to 500 nM
DC50 [2, 4]: < 100 nM
